{"source": "patent US20150342165A1", "about": "“HUMANIZED MOUSE AND METHODS OF USING THE SAME” (City of Hope, priority 2014, published 2015)", "test_system": "GM-HSPC and their progeny", "details": "for Enrichment of frequency of CD45+/GFP+ cells in spleen and bone marrow: necropsy 11 weeks after transplantation", "protocol": "All animals except control mice received 20 mg/kg O^6BG (Sigma-Aldrich, St. Louis, Mo.) followed by 5 mg/kg BCNU (Sigma-Aldrich, St. Louis, Mo.) mouse 1.5 hour later via IP injection. Drug doses were administered at either at the 7th and 8th or 7th, 8th, and 9th weeks post-transplantation. O^6BG was prepared in 35% PEG-400 (Sigma-Aldrich, St. Louis, Mo.) and 60% injectable saline.\nLentiviral vector was produced by calcium phosphate precipitation in HEK293T cells as previously described by Li M J et al. (2005). CD34+ cells were pre-stimulated overnight in SFT6. Lentiviral transduction was conducted at 1×10^6 cells/mL on Retronectin™ (Takara, Otsu-Shiga Japan)-coated non-tissue culture T-75 flask for 24 h in the presence of […] rapamycin (Sigma-Aldrich, St. Louis, Mo.). Lentivirus and rapamycin were removed and cells were washed once before being resuspended for transplantation in 0.9% NaCl saline solution with Fc/IL-7 as described above.\nMice were necropsied at 16 or 25 weeks post transplantation for analysis of engraftment. Single cell suspensions of bone marrow (femurs) and spleen were prepared by mechanical dissociation and red cells lysed using ACK lysis Buffer (Sigma-Aldrich, St. Louis, Mo.). All cell suspensions were pre-treated with human immunoglobulin (GammaGard, Baxter Healthcare Corp. Deerfield, Ill.) for 30 minutes to block nonspecific antibody staining. Cell suspensions were stained with a human pan-leukocyte antibody to CD45-PC5 (BioLegendR, San Diego, Calif.), and lineage specific antihuman, CD3-ECD, CD4-APC, CD14-APC-Alexa-750, CD19-PE (Invitrogen, Carlsbad, Calif.), and CD8β-PC5 (Beckman Coulter, Brea, Calif.), for 20 minutes and washed 2 times with 1 mL of PBS containing 0.1% BSA (Sigma-Aldrich, St Louis, Mo.). BM cells were stained with antibodies to human CD45-PC5, CD34-PC7, CD45-ECD (Beckman Coulter, Brea, Calif.), CD33-PC5 (BD Biosciences, San Diego, Calif.), CD19-PE, and CD14-APC-Alexa750 (Invitrogen, Carlsbad, Calif.) for 20 minutes and washed 2 times with 1 mL of PBS containing 0.1% BSA. To establish analytical gates and background staining, bone marrow and spleen samples from 2-3 mice that received no human cells mice were stained with the same antibody panel. Samples were analyzed using a Gallios flow cytometer (Beckman Coulter, Hialeah, Fla.) and data analyzed with FCS Express software (De Novo Software, Los Angeles, Calif.).\nLentiviral vectors expressing unique combinations of small anti-HIV RNAs expressed from a naturally occurring micro RNA cluster (MCM-7) are known. See Chung J, et al. Endogenous MCMI microRNA cluster as a novel platform to multiplex small interfering and nucleolar RNAs for combinational HIV-1 gene therapy. Human gene therapy. 2012; 23:1200-1208. […] CD34+ HSPC were transduced with this vector and used to transplant NSG mice as described in materials and methods. Animals were treated with O^6BG and BCNU at weeks 7 and 8 (2× treatment) or weeks 7, 8 and 9 (3× treatment) following transplantation. Two weeks later (11 weeks following transplantation) animals were necropsied and the level of engraftment of the spleen and bone marrow were determined.", "key": {"[1]": {"details": "second experiment, different donor, 7 weeks recovery with weekly Fc/IL-7"}}, "note": "Where two headings read alike, the source gives them in different places.", "data": [{"substance": "O^6-benzylguanine; bis-chloronitrosourea [O^6BG/BCNU]", "values": [{"measurement": "Enrichment in GM progeny in bone marrow and spleen", "setting": "2-3 rounds of treatment", "result": "4-8 fold"}, {"measurement": "Engraftment of spleen and bone marrow with human cells relative to untreated control", "setting": "2× and 3× treated animals, p<0.0001", "result": "reduced"}, {"measurement": "Enrichment of frequency of CD45+/GFP+ cells in spleen and bone marrow", "setting": "2× treatment (weeks 7 and 8)", "result": 10, "unit": "fold"}, {"measurement": "Enrichment of frequency of CD45+/GFP+ cells in spleen and bone marrow", "setting": "3× treatment (weeks 7, 8 and 9)", "result": 15, "unit": "fold"}, {"measurement": "CD45+ cells in bone marrow and spleen", "setting": "[1]", "result": "depletion"}, {"measurement": "Enrichment of CD3+/CD4+/GFP+ T-cells", "setting": "[1]", "result": "no significant enrichment"}, {"measurement": "Frequency of CD45+/GFP+ human cells and CD14+/CD4+/GFP+ monocytes", "setting": "[1]", "result": "concomitant increase"}, {"measurement": "Increase of CD4+/CD14+/GFP+ monocytes in the spleens", "setting": "three treatments", "result": 3, "unit": "fold"}, {"measurement": "Increase of average frequency of CD3+/CD4+ T-cells in the spleen", "setting": "treatment performed three times", "result": 3, "unit": "fold"}]}]}
